Literature values, collected in patent US20150177227A1, “CELLULAR AND ANIMAL MODELS FOR SCREENING THERAPEUTIC AGENTS FOR THE TREATMENT OF ALZHEIMER'S DISEASE” (priority 2012, published 2015).

Assays:
[1] = system: plaque; settings: in vivo
[2] = system: Alzheimer's disease

For “solanezumab: humanized antibody from Eli Lilly & Co. shown to clear plaque”, the plaque clearance [1] is given as “clear plaque” and the “benefit trend in phase II clinical trials” value [2] is given as “neither antibody showed any trend”.
